Experimental findings from PubChem BioAssay (NCI) are described below.

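In this assay, cells in 96-well plates receive the compound at five concentrations for 48 hours. Endpoints are linearly interpolated between the surrounding concentrations. GI50 is the concentration that inhibits growth by half. At the TGI there is no net growth.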

One experiment deals with NCI-H522 lung. Put plainly: growth of human tumour cells (NCI), 48 h.
As for `NC1=NC2(COC(c3ccccc3)(c3ccccc3)c3ccccc3)OC(COC(c3ccccc3)(c3ccccc3)c3ccccc3)C(O)C2O1` (stereo not given), the TGI was more than 100 µM.
As for `CCCCCCCCCCCCCCCCCCNc1ccn(C2OC(COP(=O)(O)OCC3OC(n4ccc(N)nc4=O)C(O)C3O)C(O)C2O)c(=O)n1` (stereo not given), the TGI is more than 100 µM.
On the same count and under the same terms, the same measure for `CCOc1cnc(C(O)(c2ccccc2)c2ccccc2)o1`: more than 100 µM; for `COC(CN(C)C(=S)Nc1cccc2ccccc12)OC`: more than 10 µM.
On to `CC(=O)c1ccc(Nc2c3c(nc4ccccc24)CCCC3)cc1`, for which the TGI was 16.6 µM.
Compound `CCN1CCC(O)(c2ccc([N+](=O)[O-])cc2)C(C(=O)c2ccc([N+](=O)[O-])cc2)C1` (stereo not given) showed a TGI of 15.1 µM.
In the case of `S=C1Cc2c(-c3ccccc3)cc(-c3cccc(Cl)c3)nc2-c2ccccc2N1`, the TGI was 13.1 µM.
Still for that read-out and setting: the same measure for `O=C(CCc1cc(O)cc(O)c1)NCCc1cc(O)cc(OCc2ccccc2)c1`: more than 100 µM; for `N#Cc1c(NC(=O)C(F)(F)F)sc2c3c(=O)c4ccccc4c(=O)c=3oc3ccccc3c12`: 32.6 µM; for `O=C1CC(O)c2cscc21` (stereo not given): more than 100 µM.
`COc1ccc(OC)c2sc(N3C(=O)/C(=C/c4cccc(Oc5ccccc5)c4)N=C3c3ccccc3)nc12` yielded a TGI of more than 100 µM.
The compound `C[C@@H](CC(=O)OCc1ccccc1)OC1OC(COC(=O)C(C)(C)C)C(OC(=O)C(C)(C)C)C(OC(=O)C(C)(C)C)C1OC(=O)C(C)(C)C` (stereo not given in full) returned a TGI of more than 100 µM.
`C=C1CC[C@@H](CCC2CCC3(OC2)O[C@]2(O)CC[C@@]3(C)OC2(C)C)C(C)(C)[C@H]1C/C=C1\CCOC1=O` (stereo not given in full) yielded a TGI of more than 58.9 µM.
As to `Cc1nc2c(sc3nc4c(cc32)CCC4)c(=O)o1`, the TGI amounted to 77.9 µM.
On to `Cc1ccc(OCC2OC(n3cnc4c(Cl)nc(Nc5cc(Cl)cc(Cl)c5)nc43)CC2Oc2ccc(C)cc2)cc1` (stereo not given), for which the TGI was more than 100 µM.
For the compound `O=[N+]([O-])c1cccc2nc3ccccc3c(NCCCCCNc3c4ccccc4nc4cccc([N+](=O)[O-])c34)c12`, the TGI is 0.388 µM.
The compound `COC(=O)c1c(C)cccc1/C=C1\Cc2ccc(C)c(C)c2C1=O` returned a TGI of more than 100 µM.
Same read-out and setting: the same measure for `COc1ccccc1C1c2cc3c(cc2OC2(OC)COC(=O)C12)OCO3` (stereo not given): more than 27.3 µM; for `COc1ccc(/C(Nc2ccccc2)=C(\CCl)c2ccccc2)cc1OC`: more than 100 µM.
For `O=S(=O)(/N=C(\NO)Nc1ccc(Cl)cc1)c1cc(C(F)(F)F)cc(C(F)(F)F)c1`, the TGI is 40.4 µM.

The subject of the next experiment is LOX IMVI melanoma. Put plainly: growth of human tumour cells (NCI), 48 h.
Turning to `C1CSCCSCCCS[C@@H]2CCCCC2SC1` (stereo not given in full), the TGI is more than 100 µM.
Still for that read-out and setting: the same measure for `COC(=O)[C@H](Cc1ccccc1)NC(=O)c1ccc(CNC(=O)/C=C/c2csc(-c3ccccc3)n2)cc1`: more than 52.8 µM.
With `CCN(/C=C1/C(=O)C(c2ccccc2)N(c2ccccc2)C1=O)CC` (stereo not given), the TGI is more than 10 µM.
In turn, `COC(=O)C1CCC(=O)N1CN(C(C)=O)c1cccc(O)c1` (stereo not given) showed a TGI of more than 100 µM.
With `COc1ccc(-c2oc3cc(-c4cc5oc(-c6ccc(OC)cc6)c(-c6ccc(OC)cc6)c5cc4OC)c(OC)cc3c2-c2ccc(OC)cc2)cc1`, the TGI was more than 100 µM.
On the same count and under the same terms, the same measure for `CCOC(=O)c1c(NC(=O)c2ccccc2)c(C#N)c2n1CCCCC2`: more than 100 µM.
Still for that read-out and setting: the same measure for `O=c1cc(Nc2cccc(O)c2)[nH]c(=O)[nH]1`: more than 100 µM; for `c1cc(-c2ccc(-c3ccsc3)s2)cs1`: more than 100 µM.
In turn, `O=C(Nn1c(-c2ccccc2)nc2ccccc2c1=O)c1ccc(Cl)cc1` had a TGI of more than 100 µM.
`CC(=O)c1ccc(N=NN2CCCC2)cc1` gave a TGI of more than 100 µM.
For `CSC(=O)/C=C1\SS/C(=C\C(=O)SC)S1`, the TGI was 3.09 µM.
For `NCCOc1cccc(C2(N3CCCCC3)CCCCC2)c1`, the TGI worked out at 28.9 µM.
The compound `CC(N)(CC(O)(C(F)(F)Cl)C(F)(F)Cl)C(=O)O` (stereo not given) showed a TGI of more than 10 µM.
`NC1=NC2(COC(c3ccccc3)(c3ccccc3)c3ccccc3)OC(COC(c3ccccc3)(c3ccccc3)c3ccccc3)C(O)C2O1` (stereo not given) came in with a TGI of more than 100 µM.
Turning to `CCCCCCCCCCCCCCCCCCNc1ccn(C2OC(COP(=O)(O)OCC3OC(n4ccc(N)nc4=O)C(O)C3O)C(O)C2O)c(=O)n1` (stereo not given), the TGI was determined as 49.4 µM.
For `CCOc1cnc(C(O)(c2ccccc2)c2ccccc2)o1`, the TGI is more than 100 µM.
The compound `COC(CN(C)C(=S)Nc1cccc2ccccc12)OC` registered a TGI of more than 10 µM.
Still for that read-out and setting: the same measure for `CC(=O)c1ccc(Nc2c3c(nc4ccccc24)CCCC3)cc1`: more than 41.4 µM.
`CCN1CCC(O)(c2ccc([N+](=O)[O-])cc2)C(C(=O)c2ccc([N+](=O)[O-])cc2)C1` (stereo not given) came in with a TGI of 38.6 µM.
As to `S=C1Cc2c(-c3ccccc3)cc(-c3cccc(Cl)c3)nc2-c2ccccc2N1`, the TGI worked out at 13.7 µM.
`O=C(CCc1cc(O)cc(O)c1)NCCc1cc(O)cc(OCc2ccccc2)c1` registered a TGI of more than 100 µM.
Take `N#Cc1c(NC(=O)C(F)(F)F)sc2c3c(=O)c4ccccc4c(=O)c=3oc3ccccc3c12`: the TGI is more than 59.1 µM.
For the compound `O=C1CC(O)c2cscc21` (stereo not given), the TGI is more than 100 µM.
With `COc1ccc(OC)c2sc(N3C(=O)/C(=C/c4cccc(Oc5ccccc5)c4)N=C3c3ccccc3)nc12`, the TGI is more than 100 µM.
The compound `C[C@@H](CC(=O)OCc1ccccc1)OC1OC(COC(=O)C(C)(C)C)C(OC(=O)C(C)(C)C)C(OC(=O)C(C)(C)C)C1OC(=O)C(C)(C)C` (stereo not given in full) came in with a TGI of more than 100 µM.
For `C=C1CC[C@@H](CCC2CCC3(OC2)O[C@]2(O)CC[C@@]3(C)OC2(C)C)C(C)(C)[C@H]1C/C=C1\CCOC1=O` (stereo not given in full), the TGI came out at 20 µM.
`Cc1nc2c(sc3nc4c(cc32)CCC4)c(=O)o1` returned a TGI of more than 100 µM.
In turn, `Cc1ccc(OCC2OC(n3cnc4c(Cl)nc(Nc5cc(Cl)cc(Cl)c5)nc43)CC2Oc2ccc(C)cc2)cc1` (stereo not given) came in with a TGI of more than 100 µM.
Consider `O=[N+]([O-])c1cccc2nc3ccccc3c(NCCCCCNc3c4ccccc4nc4cccc([N+](=O)[O-])c34)c12`, for which the GI50 was 0.0746 µM.
Consider `COC(=O)c1c(C)cccc1/C=C1\Cc2ccc(C)c(C)c2C1=O`, for which the TGI is more than 100 µM.
`COc1ccccc1C1c2cc3c(cc2OC2(OC)COC(=O)C12)OCO3` (stereo not given) returned a TGI of 67.1 µM.
The compound `COc1ccc(/C(Nc2ccccc2)=C(\CCl)c2ccccc2)cc1OC` registered a TGI of more than 100 µM.
For the compound `O=S(=O)(/N=C(\NO)Nc1ccc(Cl)cc1)c1cc(C(F)(F)F)cc(C(F)(F)F)c1`, the TGI stood at 34.2 µM.

In the next experiment the test system is MDA-N. Put plainly: growth of human tumour cells (NCI), 48 h.
Compound `COC(=O)[C@H](Cc1ccccc1)NC(=O)c1ccc(CNC(=O)/C=C/c2csc(-c3ccccc3)n2)cc1` gave a TGI of 15.5 µM.
Turning to `CCN(/C=C1/C(=O)C(c2ccccc2)N(c2ccccc2)C1=O)CC` (stereo not given), the TGI is more than 10 µM.
Compound `COC(=O)C1CCC(=O)N1CN(C(C)=O)c1cccc(O)c1` (stereo not given) had a TGI of more than 100 µM.
The same measure, in the same setting: the same measure for `COc1ccc(-c2oc3cc(-c4cc5oc(-c6ccc(OC)cc6)c(-c6ccc(OC)cc6)c5cc4OC)c(OC)cc3c2-c2ccc(OC)cc2)cc1`: more than 100 µM; for `CCOC(=O)c1c(NC(=O)c2ccccc2)c(C#N)c2n1CCCCC2`: more than 100 µM; for `O=c1cc(Nc2cccc(O)c2)[nH]c(=O)[nH]1`: more than 100 µM.
As for `c1cc(-c2ccc(-c3ccsc3)s2)cs1`, the TGI was more than 100 µM.
